Reference: ChEMBL document CHEMBL1681651, “A broad spectrum anticancer nucleoside with selective toxicity against human colon cells in vitro” (2011)

What was measured:
Assay type in all cases: functional
[1] = test system: HOP-92; test: Growth inhibition of human HOP92 cells assessed as cell growth at 1 uM after 48 hrs by SRB assay; conditions: HOP-92, 48 h, read-out: Activity
[2] = test system: SK-MEL-2; test: Growth inhibition of human SK-MEL-2 cells assessed as cell growth at 1 uM after 48 hrs by SRB assay; conditions: SK-MEL-2, 48 h, read-out: Activity
[3] = test system: UACC-62; test: Growth inhibition of human UACC62 cells assessed as cell growth at 1 mM after 48 hrs by SRB assay; conditions: UACC-62, 48 h, read-out: Activity
[4] = test system: SK-MEL-2; test: Growth inhibition of human SK-MEL-2 cells after 48 hrs by […] growth inhibition assay; conditions: SK-MEL-2, 48 h
[5] = test system: SK-MEL-5; test: Growth inhibition of human SK-MEL-5 cells assessed as cell growth at 1 mM after 48 hrs by SRB assay; conditions: SK-MEL-5, 48 h, read-out: Activity
[6] = test system: SNB-75; test: Growth inhibition of human SNB75 cells assessed as cell growth at 1 uM after 48 hrs by SRB assay; conditions: SNB-75, 48 h, read-out: Activity
[7] = test system: LOX IMVI; test: Growth inhibition of human LOXIMVI cells assessed as cell growth at 10 uM after 48 hrs by SRB assay; conditions: read-out: Activity
[8] = test system: NCI-H23; test: Growth inhibition of human NCI-H23 cells assessed as cell growth at 1 uM after 48 hrs by SRB assay; conditions: NCI-H23, 48 h, read-out: Activity
[9] = Growth inhibition of human […] cells assessed as cell growth at 100 uM after 48 hrs by SRB assay; conditions: read-out: Activity
[10] = test system: HCT-15; test: Growth inhibition of human HCT15 cells assessed as cell growth at 0.1 uM after 48 hrs by SRB assay; conditions: HCT-15, 48 h, read-out: Activity
[11] = test system: UACC-257; test: Growth inhibition of human UACC257 cells assessed as cell growth at 0.1 uM after 48 hrs by SRB assay; conditions: UACC-257, 48 h, read-out: Activity
[12] = test system: OVCAR-5; test: Growth inhibition of human OVCAR5 cells assessed as cell growth at 0.1 uM after 48 hrs by SRB assay; conditions: OVCAR-5, 48 h, read-out: Activity
[13] = test system: NCI-H23; test: Growth inhibition of human NCI-H23 cells after 48 hrs by […] growth inhibition assay; conditions: NCI-H23, 48 h
[14] = test system: SNB-75; test: Growth inhibition of human SNB75 cells assessed as cell growth at 100 uM after 48 hrs by SRB assay; conditions: SNB-75, 48 h, read-out: Activity
[15] = test system: KM12; test: Growth inhibition of human KM12 cells assessed as cell growth at 10 uM after 48 hrs by SRB assay; conditions: KM12, 48 h, read-out: Activity
[16] = test system: CAKI-1; test: Growth inhibition of human Caki1 cells assessed as cell growth at 0.1 uM after 48 hrs by SRB assay; conditions: CAKI-1, 48 h, read-out: Activity
[17] = test system: DU-145; test: Growth inhibition of human DU145 cells assessed as cell growth at 1 uM after 48 hrs by SRB assay; conditions: DU-145, 48 h, read-out: Activity
[18] = test system: SN12C; test: Growth inhibition of human SN12C cells assessed as cell growth at 10 uM after 48 hrs by SRB assay; conditions: read-out: Activity
[19] = test system: SK-MEL-5; test: Growth inhibition of human SK-MEL-5 cells assessed as cell growth at 10 uM after 48 hrs by SRB assay; conditions: SK-MEL-5, 48 h, read-out: Activity
[20] = test system: BT-549; test: Growth inhibition of human BT549 cells assessed as cell growth at 1 mM after 48 hrs by SRB assay; conditions: BT-549, 48 h, read-out: Activity
[21] = test system: PC-3; test: Growth inhibition of human PC3 cells after 48 hrs by […] growth inhibition assay; conditions: PC-3, 48 h
[22] = test system: SF-539; test: Growth inhibition of human SF539 cells assessed as cell growth at 100 uM after 48 hrs by SRB assay; conditions: SF-539, 48 h, read-out: Activity
[23] = test system: M14; test: Growth inhibition of human M14 cells assessed as cell growth at 0.1 uM after 48 hrs by SRB assay; conditions: M14, 48 h, read-out: Activity
[24] = test system: M14; test: Growth inhibition of human M14 cells assessed as cell growth at 1 uM after 48 hrs by SRB assay; conditions: M14, 48 h, read-out: Activity
[25] = test system: RXF 393; test: Growth inhibition of human RXF393 cells after 48 hrs by […] growth inhibition assay; conditions: RXF 393, 48 h
[26] = test system: CCRF-CEM; test: Growth inhibition of human CCRF-CEM cells assessed as cell growth at 10 uM after 48 hrs by SRB assay; conditions: read-out: Activity
[27] = test system: MDA-MB-231; test: Growth inhibition of human MDA-MB-231 cells assessed as cell growth at 1 uM after 48 hrs by SRB assay; conditions: MDA-MB-231, 48 h, read-out: Activity
[28] = test system: RXF 393; test: Growth inhibition of human RXF393 cells assessed as cell growth at 10 uM after 48 hrs by SRB assay; conditions: RXF 393, 48 h, read-out: Activity
[29] = test system: SK-MEL-2; test: Growth inhibition of human SK-MEL-2 cells assessed as cell growth at 10 uM after 48 hrs by SRB assay; conditions: SK-MEL-2, 48 h, read-out: Activity
[30] = test system: A549; test: Growth inhibition of human A549 cells assessed as cell growth at 100 uM after 48 hrs by SRB assay; conditions: A549, 48 h, read-out: Activity
[31] = test system: Malme-3M; test: Growth inhibition of human MALME-3M cells assessed as cell growth at 10 uM after 48 hrs by SRB assay; conditions: read-out: Activity
[32] = test system: A549; test: Growth inhibition of human A549 cells after 48 hrs by […] growth inhibition assay; conditions: A549, 48 h
[33] = test system: SK-MEL-2; test: Growth inhibition of human SK-MEL-2 cells assessed as cell growth at 100 uM after 48 hrs by SRB assay; conditions: SK-MEL-2, 48 h, read-out: Activity
[34] = test system: NCI-H226; test: Growth inhibition of human NCI-H226 cells assessed as cell growth at 10 uM after 48 hrs by SRB assay; conditions: NCI-H226, 48 h, read-out: Activity
[35] = read-out: LC50 (the source's name)
[36] = read-out: pLC50 (the source's name) (converted)

With `CNC(=O)NC[C@H]1O[C@@H](n2cnc3c(NC(=O)Nc4ccccc4)ncnc32)[C@H](O[Si](C)(C)C(C)(C)C)[C@@H]1O[Si](C)(C)C(C)(C)C` the growth at 1 µM [1] was 80%, the growth at 1 µM [2] was 110% and the growth at 1000 µM [3] was -39%. It also gave a GI50 ([4]; read-out: GI50) of 2.45 µM, a CC50 [4, 35] of over 100 µM and a TGI ([4]; read-out: TGI) of 55.4 µM. For the same compound, the GI50 ([4]; read-out: pGI50 (converted)) was 2.45 µM, the CC50 [4, 36] was 28.2 µM and the TGI ([4]; read-out: pTGI (converted)) was 5.5 µM. The growth at 1000 µM [5] was -99%, the growth at 1 µM [6] was 95% and the growth at 10 µM [7] was 98%. It also gave a growth at 1 µM [8] of 106%, a growth at 100 µM [9] of 5% and a growth at 0.1 µM [10] of 105%. The growth at 0.1 µM [11] was 97%, the growth at 0.1 µM [12] was 96% and the GI50 ([13]; read-out: GI50) was 3.17 µM. It also gave a CC50 [13, 35] of 86 µM, a TGI ([13]; read-out: TGI) of 9.07 µM and a GI50 ([13]; read-out: pGI50 (converted)) of 3.16 µM. For the same compound, the CC50 [13, 36] was 85.1 µM, the TGI ([13]; read-out: pTGI (converted)) was 9.12 µM and the growth at 100 µM [14] was 14%. It also gave a growth at 10 µM [15] of 107%, a growth at 0.1 µM [16] of 103% and a growth at 1 µM [17] of 107%. For the same compound, the growth at 10 µM [18] was 98%, the growth at 10 µM [19] was 89% and the growth at 1000 µM [20] was -36%. It also gave a GI50 ([21]; read-out: GI50) of 2.69 µM, a CC50 [21, 35] of over 100 µM and a TGI ([21]; read-out: TGI) of over 1 µM. For the same compound, the GI50 ([21]; read-out: pGI50 (converted)) was 2.69 µM, the CC50 [21, 36] was over 100 µM and the TGI ([21]; read-out: pTGI (converted)) was over 100 µM. It also gave a growth at 100 µM [22] of 7%, a growth at 0.1 µM [23] of 101% and a growth at 1 µM [24] of 107%. For the same compound, the GI50 ([25]; read-out: GI50) was 2.14 µM, the CC50 [25, 35] was 7.5 µM and the TGI ([25]; read-out: TGI) was 4.01 µM. For the same compound, the GI50 ([25]; read-out: pGI50 (converted)) was 2.14 µM, the CC50 [25, 36] was 7.41 µM and the TGI ([25]; read-out: pTGI (converted)) was 3.98 µM. For the same compound, the growth at 10 µM [26] was 101%, the growth at 1 µM [27] was 109% and the growth at 10 µM [28] was 111%. The growth at 10 µM [29] was 105%, the growth at 100 µM [30] was 4% and the growth at 10 µM [31] was 96%. For the same compound, the GI50 ([32]; read-out: GI50) was 2.9 µM, the CC50 [32, 35] was over 100 µM and the TGI ([32]; read-out: TGI) was 12.8 µM. It also gave a GI50 ([32]; read-out: pGI50 (converted)) of 2.88 µM, a CC50 [32, 36] of over 100 µM and a TGI ([32]; read-out: pTGI (converted)) of 12.9 µM. The growth at 100 µM [33] was -36% and the growth at 10 µM [34] was 105%.
